# Assay results from patent publication US20170158776A1, “TREATMENT OF LUNG CANCER USING A COMBINATION OF AN ANTI-PD-1 ANTIBODY AND ANOTHER ANTI-CANCER AGENT” (Bristol-Myers Squibb Company, priority 2014, published 2017).
# Where “and” joins values, the source holds several entries; their conditions need not be identical. Identical values can stand only once.
# Assays:
# PD-1 = biological target: T1, PD-1 (Homo sapiens, UniProt Q15116); settings: 15 subjects, 0.3 mg/kg to 10 mg/kg, across all doses, cited from earlier work
# T1 construct: Receptor-occupancy data from 15 subjects who received 0.3 mg/kg to 10 mg/kg dosing with nivolumab; endogenous in cells
# T1 sequence (Q15116 25-288): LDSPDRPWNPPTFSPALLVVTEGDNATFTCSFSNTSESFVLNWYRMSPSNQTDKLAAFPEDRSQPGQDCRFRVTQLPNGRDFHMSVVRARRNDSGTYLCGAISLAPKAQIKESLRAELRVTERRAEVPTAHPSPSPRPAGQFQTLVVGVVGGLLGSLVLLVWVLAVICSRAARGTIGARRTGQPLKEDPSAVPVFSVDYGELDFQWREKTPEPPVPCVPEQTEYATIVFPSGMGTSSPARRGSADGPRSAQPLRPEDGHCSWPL
# patients with NSCLC [1] = assay: Nivolumab monotherapy arm (Arm F), efficacy; type: in vivo, human
# Protocol: (§1) One arm was developed to test the effect of nivolumab monotherapy on NSCLC. Patients were treated with 3 mg/kg nivolumab (nivo) q2w (once every 2 weeks).
# patients with NSCLC [2] = assay: Nivolumab monotherapy arm (Arm F), safety; type: in vivo, human; settings: 3 mg/kg q2w
# Protocol: as §1
# [3] = tested on: heavily pretreated patients with advanced NSCLC; assay: CA209-003 phase 1: nivolumab monotherapy, efficacy (RECIST 1.0, OS, subgroups, PD-L1); type: in vivo, human
# Protocol: Objective response rate (ORR) was analyzed according to select patient characteristics (age, gender, Eastern Cooperative Oncology Group performance status [ECOG PS], histology, number of prior therapies, prior tyrosine kinase inhibitor [TKI] therapy, epidermal growth factor receptor [EGFR] and Kirsten rat sarcoma viral oncogene homolog [KRAS] mutational status).
# PD-L1 expression in archived tumor samples was measured using the Dako immunohistochemistry (IHC) assay. Positive staining with this assay was defined as tumor membrane staining at any intensity, and was analyzed with cut-off values of 1% and 5% expression to assess PD-L1 positivity (Butte M J, et al.). Tumor PD-L1 expression was evaluated for potential association with clinical endpoints.
substance,measurement,setting,value
nivolumab,mean plateau PD-1 occupancy,PD-1; range 59% to 81%,72%
same,mean PD-1 occupancy rate,PD-1; range 70% to 97%,85%
same,Best Overall Response: CR,patients with NSCLC [1]; Arm F (n = 52),4 (8%)
same,Best Overall Response: PD,patients with NSCLC [1]; Arm F (n = 52),20 (38%)
same,Best Overall Response: PR,patients with NSCLC [1]; Arm F (n = 52),8 (15%)
same,Best Overall Response: SD,patients with NSCLC [1]; Arm F (n = 52),14 (27%)
same,Best Overall Response: Unable to determine,patients with NSCLC [1]; Arm F (n = 52),6 (12%)
same,Best Overall Response: Unconfirmed PR,patients with NSCLC [1]; Arm F (n = 52),0
same,Confirmed DCR,patients with NSCLC [1]; Arm F (n = 52),26 (50%)
same,Confirmed ORR,patients with NSCLC [1]; Arm F (n = 52),12 (23%)
same,Overall DCR,patients with NSCLC [1]; Arm F (n = 52),26 (50%)
same,Overall ORR,patients with NSCLC [1]; Arm F (n = 52),12 (23%)
same,>80% target lesion reduction at 18 wks,patients with NSCLC [1]; Arm F N = 52,3 (6%)
same,Median OS,patients with NSCLC [1]; Arm F N = 52,22.6 mos
same,Median PFS,patients with NSCLC [1]; Arm F N = 52,15.6 wks
same,Number of responders,patients with NSCLC [1]; Arm F N = 52,12 (23%)
same,OS rate at 12 months,patients with NSCLC [1]; Arm F N = 52,74%
same,Ongoing responder,patients with NSCLC [1]; Arm F N = 52,8 (67%)
same,PFS rate at 24 weeks,patients with NSCLC [1]; Arm F N = 52,41%
same,Best Overall Response: CR,patients with NSCLC [1]; Non-squamous (n = 39),3 (8%)
same,Best Overall Response: PD,patients with NSCLC [1]; Non-squamous (n = 39),7 (18%)
same,Best Overall Response: PR,patients with NSCLC [1]; Non-squamous (n = 39),7 (18%)
same,Best Overall Response: SD,patients with NSCLC [1]; Non-squamous (n = 39),0
same,Best Overall Response: Unable to determine,patients with NSCLC [1]; Non-squamous (n = 39),6 (15%)
same,Best Overall Response: Unconfirmed PR,patients with NSCLC [1]; Non-squamous (n = 39),0
same,Confirmed DCR,patients with NSCLC [1]; Non-squamous (n = 39),18 (46%)
same,Confirmed ORR,patients with NSCLC [1]; Non-squamous (n = 39),10 (26%)
same,Overall DCR,patients with NSCLC [1]; Non-squamous (n = 39),18 (46%)
same,Overall ORR,patients with NSCLC [1]; Non-squamous (n = 39),10 (26%)
same,Best Overall Response: CR,patients with NSCLC [1]; Squamous (n = 13),1 (8%)
same,Best Overall Response: PD,patients with NSCLC [1]; Squamous (n = 13),5 (38%)
same,Best Overall Response: PR,patients with NSCLC [1]; Squamous (n = 13),1 (8%)
same,Best Overall Response: SD,patients with NSCLC [1]; Squamous (n = 13),6 (46%)
same,Best Overall Response: Unable to determine,patients with NSCLC [1]; Squamous (n = 13),0
same,Best Overall Response: Unconfirmed PR,patients with NSCLC [1]; Squamous (n = 13),0
same,Confirmed DCR,patients with NSCLC [1]; Squamous (n = 13),8 (62%)
same,Confirmed ORR,patients with NSCLC [1]; Squamous (n = 13),2 (15%)
same,Overall DCR,patients with NSCLC [1]; Squamous (n = 13),8 (62%)
same,Overall ORR,patients with NSCLC [1]; Squamous (n = 13),2 (15%)
same,"Arthralgia, All Gr",patients with NSCLC [2]; n = 52,5 (9.6) n (%)
same,"Arthralgia, GR ¾",patients with NSCLC [2]; n = 52,0 n (%)
same,"Constipation, All Gr",patients with NSCLC [2]; n = 52,3 (5.8) n (%)
same,"Constipation, GR ¾",patients with NSCLC [2]; n = 52,0 n (%)
same,"Diarrhea, All Gr",patients with NSCLC [2]; n = 52,6 (11.5) n (%)
same,"Diarrhea, GR ¾",patients with NSCLC [2]; n = 52,1 (1.9) n (%)
same,"Fatigue, All Gr",patients with NSCLC [2]; n = 52,15 (28.8) n (%)
same,"Fatigue, GR ¾",patients with NSCLC [2]; n = 52,0 n (%)
same,"Hypothyriodism, All Gr",patients with NSCLC [2]; n = 52,3 (5.8) n (%)
same,"Hypothyriodism, GR ¾",patients with NSCLC [2]; n = 52,0 n (%)
same,"Nausea, All Gr",patients with NSCLC [2]; n = 52,7 (13.5) n (%)
same,"Nausea, GR ¾",patients with NSCLC [2]; n = 52,0 n (%)
same,"Pneumonitis, All Gr",patients with NSCLC [2]; n = 52,3 (5.8) n (%)
same,"Pneumonitis, GR ¾",patients with NSCLC [2]; n = 52,1 (1.9) n (%)
same,"Pruritus, All Gr",patients with NSCLC [2]; n = 52,6 (11.5) n (%)
same,"Pruritus, GR ¾",patients with NSCLC [2]; n = 52,0 n (%)
same,"Rash, All Gr",patients with NSCLC [2]; n = 52,10 (19.2) n (%)
same,"Rash, GR ¾",patients with NSCLC [2]; n = 52,2 (3.8) n (%)
same,"Total patients with an event, All Gr",patients with NSCLC [2]; n = 52,37 (71.2) n (%)
same,"Total patients with an event, GR ¾",patients with NSCLC [2]; n = 52,10 (19.2) n (%)
same,"Vomiting, All Gr",patients with NSCLC [2]; n = 52,3 (5.8) n (%)
same,"Vomiting, GR ¾",patients with NSCLC [2]; n = 52,0 n (%)
same,Discontinued subjects: Toxicity,patients with NSCLC [2]; 52 treated,6 (12%)
same,Estimated Median DOR,[3]; 1 mg/kg,63.9 wks
same,Median OS,[3]; 1 mg/kg,9.2 mo
same,Median PFS,[3]; 1 mg/kg,1.8 mo
same,ORR,[3]; 1 mg/kg,3.0%
same,OS Rate 1-year,[3]; 1 mg/kg,32%
same,OS Rate 2-year,[3]; 1 mg/kg,12%
same,Estimated Median DOR,[3]; 3 mg/kg,74.0 wks
same,Median OS,[3]; 3 mg/kg,14.9 mo
same,Median PFS,[3]; 3 mg/kg,1.9 mo
same,ORR,[3]; 3 mg/kg,24% and 24.3%
same,OS Rate 1-year,[3]; 3 mg/kg,56%
same,OS Rate 2-year,[3]; 3 mg/kg,45%
same,Estimated Median DOR,[3]; 10 mg/kg,83.1 wks
same,Median OS,[3]; 10 mg/kg,9.2 mo
same,Median PFS,[3]; 10 mg/kg,3.7 mo
same,ORR,[3]; 10 mg/kg,20.3%
same,OS Rate 1-year,[3]; 10 mg/kg,40%
same,OS Rate 2-year,[3]; 10 mg/kg,19%
same,"of these, responses ongoing at the time of reporting",[3]; 5 of 6,83%
same,responders who discontinued for reasons other than disease progression and responded for >30 weeks after the last dose,[3]; 6/16,38%
same,Responses ongoing at the time of analysis,[3]; 10/22,45%
same,patients with ORs with response at first assessment (8 weeks),[3]; 11/22,50%
same,Estimated Median DOR,[3]; All doses,74 wks and 74.0 wks
same,Median OS,[3]; All doses,9.9 mo
